The source made the active and inactive calls.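 How the source made its calls: active means AC50 no more than ten times the top concentration tested, that is within one log above it; inconclusive means flat curve fit with activity between 30% and 70%, or invalid poor fit; inactive means AC50 beyond ten times the top tested dose.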 Bounds are passed on as bounds.

This test concerns S. cerevisiae Mot1-301 ts growth rescue, BacTiter-Glo ATP luminescence. The experiment in a line: growth rescue of Mot1-301 ts yeast, confirmation, SUMOylation pathway inhibitor project, whole organism, S. cerevisiae, Mot1-301 ts mutant, luminescence, dose retest (AID 463204).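 Further: growth at restrictive 38.5 degrees C of Mot1-301 OY566 strain; actives raise luminescence by restoring growth of the ts mutant at high temperature.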
As for `Cc1ccccc1-c1nnnn1C1CCS(=O)(=O)C1` (stereo not drawn), the AC50 (commonly the concentration at which the activity in the assay is half-maximal) was > 42 µM (inactive).
The same measure for `CC(C)CC(=O)Nc1ccc(C(=O)CN2C(=O)NC3(CCOc4ccccc43)C2=O)cc1` (stereo not drawn): > 42 µM (inactive).
The same measure for `CCN1C(=S)N[C@@H](CCc2ccccc2)C(C(=O)OC)=C1C`: > 42 µM (inactive).
The value for `COc1cc2c(=O)n(-c3ccc(C)cc3)c(=O)n(CC(=O)c3ccc4c(c3)OCO4)c2cc1OC` was > 42 µM (inactive); that for `COC(=O)[C@@H]1[C@@H](C(=O)OC)C2(c3ccccc3-c3ccccc32)N(c2ccc(Cl)cc2)N1C#N` was 1.72 µM; that for `CCOC(=O)c1[nH]c2ccc(F)cc2c1NC(=O)CCN1CCOCC1` was > 42 µM (inactive).
As to `COc1ccccc1NC(=O)N1CCN(C(=O)Nc2ccccc2OC)CC1`, the AC50 was > 42 µM (inactive).
With `C=CCNC(=O)c1onc(CSc2cccc(C)c2)c1C(=O)O`, the AC50 was > 42 µM (inactive).
For `CCCc1cc(=S)n2c([nH]c3ccccc32)c1C#N`, the AC50 was > 42 µM (inactive).
For the compound `O=C(CCSc1ccccc1)Nc1ncccn1`, the AC50 is > 42 µM (inactive).
As for `COc1ccc(CCNC(=O)CC2C(=O)NCCN2CC(C)(C)C)cc1` (stereo not drawn), the AC50 is > 42 µM (inactive).
For the compound `O=S(=O)(Cc1ccccc1)N1CCN(c2ccccc2)CC1`, the AC50 is > 42 µM (inactive).
`Cc1cc(C)n(CCCNC(=O)CN(C)S(=O)(=O)c2ccc(Cl)cc2)n1`: the AC50 was > 42 µM (inactive).
Consider `Cc1c(NC(=O)CN2C(=O)NC(C)(c3ccc(OC(F)F)cc3)C2=O)c(=O)n(-c2ccccc2)n1C` (stereo not drawn), for which the AC50 was > 42 µM (inactive).
In the case of `Cc1ccc(CC2CC(=O)N(c3ccc4c(c3)OCCO4)C2=O)cc1` (stereo not drawn), the AC50 was > 42 µM (inactive).
As to `CCn1c(SCc2nc3ccccc3s2)nnc1-c1ccccc1`, the AC50 is > 42 µM (inactive).
The value for `CCC(=O)N(Cc1ccc2c(c1)OCO2)Cc1cc2cc(OC)ccc2[nH]c1=O` was > 42 µM (inactive).
The value for `CC(=O)N/C(=C\c1ccccc1)C(=O)OCC(=O)c1ccccc1` was > 42 µM (inactive); that for `Cc1ccc2nc(NC(=O)C3CCN(S(=O)(=O)c4cccnc4)CC3)sc2c1` was > 42 µM (inactive).
Take `S=C(Nc1ccc(Cl)cc1)N1CCN(Cc2ccccc2)CC1`: the AC50 is > 42 µM (inactive).
The value for `C/C(=N\NC(=O)Cc1csc(N2CCOCC2)n1)c1ccccc1` was > 42 µM (inactive); that for `CCC1CCCCN1C(=O)CSc1nc2c([nH]c3ccccc32)c(=O)n1C` (stereo not drawn) was > 42 µM (inactive); that for `CC(Cc1ccc(O)c(O)c1)C(C)Cc1ccc(O)c(O)c1` (stereo not drawn) was > 42 µM (inactive).
Turning to `COc1cc(/C=C(\C#N)C(=O)Nc2ccc(C(=O)O)cc2)ccc1OC(=O)c1cccc(F)c1`, the AC50 is > 42 µM (inactive).
The value for `O=C(NCCN1CCOCC1)Nc1ccc(Cl)cc1Cl` was > 42 µM (inactive); that for `COC(=O)c1ccccc1N(C)S(C)(=O)=O` was > 42 µM (inactive).
Take `O=c1[nH]cnc2ccc([N+](=O)[O-])cc12`: the AC50 is > 42 µM (inactive).
Turning to `N#Cc1c(NC(=O)c2ccc([N+](=O)[O-])o2)sc2c1CCC2`, the concentration at half-maximal activity (AC50) was 40.1 µM.
For `CN(C)/C=C/C(=O)c1ccncc1`, the AC50 is > 42 µM (inactive).
For `CCOc1ccc(/C=N/NS(=O)(=O)c2ccc(C)cc2)cc1OC`, the AC50 is > 42 µM (inactive).
The same measure for `Cn1c(SCC(=O)Nc2nnc(-c3ccccc3)o2)nnc1C1CC1`: > 42 µM (inactive); for `Cc1cc(NC(=O)c2ccccc2F)n(C(C)(C)C)n1`: > 42 µM (inactive).
Regarding `COC(=O)CN1C(=O)c2cccc3cccc1c23`, the AC50 was > 42 µM (inactive).
As to `CCOc1ccc(CCNC(=O)COC(=O)COc2ccc(C(C)=O)cc2)cc1OCC`, the AC50 was > 42 µM (inactive).
For `CCOc1ccc(-n2cc(C(=O)NCCOC)c3cc(OC)c(OC)cc3c2=O)cc1`, the AC50 is > 42 µM (inactive).
In the case of `Cc1ccc(C(=O)O)cc1N=Cc1cc(Br)cc(Br)c1O`, the AC50 is 2.45 µM.
Take `Cc1ccc(C(C(=O)NCC2CCCO2)N(Cc2ccccc2F)C(=O)Cn2nnc(-c3cccs3)n2)cc1` (stereo not drawn): the AC50 is > 42 µM (inactive).
The value for `CCCOc1ccc([N+](=O)[O-])c(N)c1` was > 42 µM (inactive); that for `COc1ccc(C(=O)NCC(=O)Nc2ccccc2)cc1OC` was > 42 µM (inactive).
Turning to `Cc1c(C(=O)NC(C)C)oc2c1-c1[nH]ncc1CC2`, the AC50 is > 42 µM (inactive).
In the case of `COC(=O)C1(Cc2ccc(O)cc2)OC(=O)C(O)=C1c1ccc(O)cc1` (stereo not drawn), the AC50 is > 42 µM (inactive).
Consider `COc1cc(O)oc1C=Nc1ccc(C(=O)O)cc1`, for which the AC50 is > 42 µM (inactive).
Take `Cc1ccc2c(c1)N(CC(=O)NCCCN1CCN(C)CC1)C(=O)CO2`: the AC50 is > 42 µM (inactive).
The value for `Cc1ccc(O)c(CNc2nc3ccccc3n2C)c1` was > 42 µM (inactive); that for `COC(=O)C1(Cc2cc(-c3ccccc3)no2)CCN(C(=O)OC(C)(C)C)CC1` was > 42 µM (inactive); that for `O=C(Nc1ccccc1N1CCOCC1)c1cc(Br)c(Br)s1` was > 42 µM (inactive).
For the compound `COc1cccc(OC)c1C(=O)Nc1ccc2c(c1)n(C)c(=O)n2C`, the AC50 was > 42 µM (inactive).
Consider `CCc1ccc(-c2nc(SCC(=O)N3CCOCC3)n[nH]2)cc1`, for which the AC50 is > 42 µM (inactive).
For `O=C(CSc1ncn[nH]1)Nc1cccc(S(=O)(=O)N2CCCCCC2)c1`, the AC50 was > 42 µM (inactive).
`Cc1ccc(C(=O)Nc2ccc3c(c2)OCCO3)c(Cl)c1`: the AC50 is > 42 µM (inactive).
The value for `CCn1nccc1C(=O)Nc1nccs1` was > 42 µM (inactive); that for `COc1ccccc1OCCCn1cc(C#N)c2ccccc21` was > 42 µM (inactive).
As to `COc1ccc(S(=O)(=O)N2CCN(c3ccc(F)cc3)CC2)cc1C(=O)N1CCOCC1`, the AC50 is > 42 µM (inactive).
For `Cc1cc(F)ccc1S(=O)(=O)Nc1ccccc1C(=O)Nc1ccc2[nH]c(=O)[nH]c2c1`, the AC50 is > 42 µM (inactive).
On to `Cc1ccnc(NC(=O)CNC(=O)c2ccc(Br)o2)c1`, for which the AC50 was > 42 µM (inactive).
On to `CNS(=O)(=O)c1cccc(C(=O)OCC(=O)Nc2ccc(OC)cc2[N+](=O)[O-])c1`, for which the AC50 was > 42 µM (inactive).
The value for `NC(=O)CN1CCOCCN(CC(N)=O)CCOCC1` was > 42 µM (inactive).
For the compound `COc1ccc(Cn2nnnc2CN2CCN(c3ccc(OC)cc3)CC2)cc1`, the AC50 was > 42 µM (inactive).
For `COCCn1c(SCC(=O)N2CCCC2)nnc1-c1ccoc1C`, the AC50 is > 42 µM (inactive).
For the compound `O=S(=O)(c1ccccc1)N1CCN(c2nc3ccccc3s2)CC1`, the AC50 is > 42 µM (inactive).
As for `CCOC(=O)c1c(/N=C/C2C(=O)CCCC2=O)sc2c1CCCC2`, the AC50 is > 42 µM (inactive).
The same measure for `COc1cc(NC(=O)c2cc(Cl)ccc2Cl)ccc1-c1cc2ccccc2oc1=O`: > 42 µM (inactive).
In the case of `Cc1cc(C)c2nc(-c3cccnc3)cc(C(=O)Nc3ccc(S(=O)(=O)Nc4onc(C)c4C)cc3)c2c1`, the AC50 is > 42 µM (inactive).
For `S=C(NCCc1ccccc1)Nc1ccccc1Cl`, the AC50 was > 42 µM (inactive).
The value for `CCCCn1c(N)c(N(CC(C)C)C(=O)c2cc(-c3ccc(F)cc3)nc3ccccc23)c(=O)[nH]c1=O` was > 42 µM (inactive); that for `CCOc1ccc(OCC)c(NC(=O)C2COc3ccccc3O2)c1` (stereo not drawn) was > 42 µM (inactive); that for `Cc1cc(C(=O)N/N=C/c2ccc3c(c2)OCO3)c2ccccc2n1` was > 42 µM (inactive).
In the case of `CN(C)c1oc(-c2ccccc2Cl)nc1S(=O)(=O)c1ccccc1`, the AC50 is > 42 µM (inactive).
Consider `O=S(=O)(NCc1ccco1)c1ccc2ccccc2c1`, for which the AC50 is > 42 µM (inactive).
In the case of `O=C(O)CCc1ccc(-c2cccs2)n1NC(=O)c1cccs1`, the AC50 is > 42 µM (inactive).
Consider `CCn1c(SC(=O)NC2CCCCC2)nnc1-c1cccs1`, for which the AC50 was 11.6 µM.
As for `CC(C)CN(C(=O)COC(=O)c1ccc2c(c1)OCO2)c1c(N)n(Cc2ccccc2)c(=O)[nH]c1=O`, the AC50 is > 42 µM (inactive).
As to `COC(=O)c1cccc(NC(=O)c2cccnc2)c1`, the AC50 was > 42 µM (inactive).
As to `COc1ccc(CCC(=O)Nc2ccc3c(c2)OCO3)cc1`, the AC50 was > 42 µM (inactive).
For `O=S(=O)(NCc1cccc(C(F)(F)F)c1)NCc1ccccc1F`, the AC50 is > 42 µM (inactive).
Consider `COc1cccc(NC(=O)Nc2cc(C(=O)NC(C)C)ccc2N2CC3CC(C2)c2cccc(=O)n2C3)c1` (stereo not drawn), for which the AC50 was > 42 µM (inactive).
As for `Cc1ccc(Oc2ccccc2NC(=O)C2=COCCO2)cc1`, the AC50 is > 42 µM (inactive).
Consider `Cc1cc(C)cc(N2C(=O)CC(Sc3ncn[nH]3)C2=O)c1` (stereo not drawn), for which the AC50 is 1.92 µM.
With `Cc1cc(C)cc(C(=O)NC(CC(N)=O)c2ccc(N3CCC(N4CCCCC4)CC3)c([N+](=O)[O-])c2)c1` (stereo not drawn), the AC50 was > 42 µM (inactive).
The same measure for `COc1cccc(-n2c(Cc3cc(=O)[nH]c(=O)[nH]3)nnc2SCc2cccnc2)c1`: > 42 µM (inactive).
Turning to `O=C1CCCN1CCC(=O)N1CCCC(N2CCN(c3ccccc3F)CC2)C1` (stereo not drawn), the AC50 is > 42 µM (inactive).
The same measure for `CCC(=O)Nc1ccc(Br)c(Cl)c1`: > 42 µM (inactive); for `CCOc1ccc(N(C(=O)C2CCCO2)C2C=CS(=O)(=O)C2)cc1` (stereo not drawn): > 42 µM (inactive); for `Cc1cccc(NC(=O)CSCC(=O)N2CCCc3ccccc32)c1`: > 42 µM (inactive).
In the case of `Cc1cc(-c2ccccc2)n(-c2ccc(C(=O)NC(C)C)cc2)n1`, the AC50 was > 42 µM (inactive).
On to `CCCCN(C)C(=O)CCC(=O)Nc1ccc2nc(N3CCN(C)CC3)cc(C)c2c1`, for which the AC50 is > 42 µM (inactive).
Regarding `COc1ccc(CCC(=O)NNC(=S)Nc2cccc(C(C)=O)c2)cc1`, the AC50 is > 42 µM (inactive).
Turning to `COc1cccc(/C=N/n2cnc3ccccc32)c1OC`, the AC50 is > 42 µM (inactive).

For the origin of these results see PubChem BioAssay AID463204 (Broad Institute, 2010).
